Counter-ions that a name gives are not always drawn.
What was measured:
[1] = tested on: lipid peroxidation in rat brain homogenates; assay: Lipid peroxidation assay (ascorbic acid induced, MDA/TBA readout); format: biochemical; details: concentration inhibiting lipid peroxidation by 50%; rat cortex preparation, 500-µM L-ascorbic acid, 37 °C for 30 min
Description: Lipid peroxidation in rat brain homogenates is a general procedure used to measure the antioxidant capacity of molecules in a biological environment (Das N.P. and Ratty A.K., Biochem. Med. Metab. Biol. 1987, 37, 256-264).
Rat cortex was homogenised in 20 vols. of ice cold 0.32-M sucrose and centrifuged at 1,000 g for 10 min. The pellet was discarded whilst the resulting supernatant was centrifuged at 15,000 g for 20 min at 4 °C to yield p2 pellets. The pellet was re-suspended in ice-cold 50.0-mM phosphate buffer and centrifuged at 30,000 g for 20 min at 4 °C. The pellet was re-suspended in 30 vols, of 50.0-mM phosphate buffer and used immediately in the assay.
Assays contained 500-µM L-ascorbic acid to induce lipid peroxidation, plus various concentrations of test compound, with the tissue preparation in a total volume of 500 µL. This was incubated at 37 °C for 30 min. Lipid peroxidation was measured by adding to the reaction mixture, 300 µL 40 % (w/v) trichloroacetic acid, 150 µL 5.0-M HCl and 300 µL 2 % (w/v) 2-thiobarbituric acid (TBA). Samples were then heated at 90 °C in a water bath for 15 min, and centrifuged at 15,000 g for 10 min. The pink colour of the supernatant was assessed spectrophotometrically at a wavelength of 532 nm. The amount of malondialdehyde (MDA) in the samples was calculated using a standard curve prepared with malondialdehyde tetrabutylammonium salt (Das, N.P. and Ratty, A.K. Biochem. Med. Metab. Biol. 1987, 37, 256-264).
The IC50 values show the concentration of test compound required to inhibit the lipid peroxidation by 50%.

[2] = tested on: cerebellar granule cell (CGC) cultures; assay: Iodoacetate (IAA) induced cell death, MTT-reductase readout; format: cell-based; details: Cell Toxicity, 30-µM IAA for 30 min plus 10-µM MK-801, then test compound, 24 hour incubation
Description: After 6-8 days in culture, cerebellar granule cell (CGC) cultures in 96-well plates (250,000 cells per well) were prepared for hypoglycaemia. Iodoacetate (IAA) was made up in a balanced salt solution (BSS) (NaCI, 154.0-mM; KCl, 5.6-mM; MgCl2, 1.0-mM; CaCl2, 2.5-mM; N-[2-hydroxyethyl]piperazine-N'-[2-ethanesulfonic acid] (HEPES), 10.0-mM; D-glucose, 5.6-mM; pH 7.4) and any neuroprotective agents were made up in pre-warmed tissue culture media and allowed to equilibrate in a controlled environment (5 % CO2, 95 % air). The assay was initiated by aspiration of the maintenance media, which was replaced by either BSS (control) or 30-µM IAA in BSS, both solutions containing 10-µM of the NMDA receptor antagonist MK-801. The exposure to IAA was for 30 min only at 37 °C, after which time the BSS was aspirated and replaced with fresh, pre-equilibriated maintenance media containing various concentrations of test compound. All conditions were performed at least in duplicate in each 96 well plate. The final volume for each well was always 200 µL. Following a 24 hour incubation, visual inspection of the cells was followed by quantification of neuronal cell death by measuring 3-[4,5-dimethylthiazol-2-yl]-2,5-diphenyltetrazolium bromide (MTT)-reductase activity as described previously (Malcolm et al., J. Neurochem. 1996, 66, 2350-2360).

[3] = tested on: oxidation of DCFH to DCF; assay: Measurement of intracellular oxidative stress (DCFH-DA fluorescence); format: cell-based; details: 0.5 h, concentration blocking oxidation of DCFH to DCF by 50%, 30.0-µM IAA, 30 minutes, read from Figure 1
Description: IAA-stimulated fluorescence values are given as a function of concentration of the test compound.
Intracellular oxidative stress was measured using the oxidant-sensitive fluorescent dye 2',7'-dichlorodihydrofluorescein diacetate (DCFH-DA) (Molecular Probes). The non-fluorescent DCFH-DA readily crosses cell membranes whereupon it is trapped within the cytoplasm by deacetylation to the non-membrane permeable form dichlorodihydrofluorescein (DCFH). Upon oxidation, DCFH yields the highly fluorescent product dichlorofluorescein (DCF). Briefly, growth medium was aspirated from cultures and replaced with 200 µl BSS (plus 10.0-µM MK-801) or BSS (plus 10.0-µM MK-801) containing 30.0-µM IAA alone or in combination with various concentrations of antioxidants. After incubation at 37 °C for 30 minutes, cultures were aspirated once more and 10.0-µM DCFH-DA (200 µL) added to all wells. After a further 20 minute incubation at 37 °C, fluorescence was measured in a Cytofluor II fluorescent plate reader (λex=485nm; λem=530nm). Background fluorescence values from wells treated with 2 % Triton X-100 were subtracted from both basal and stimulated fluorescence values and the effects of test compounds expressed as a percent inhibition of the IAA-stimulated fluorescence increase over basal.
The EC50 value gives the effective concentration of test compound required to block the oxidation of DCFH to DCF by 50%. […]

| Compound | IC50 [1] [µM] | EC50 [3] [µM] | EC50 [2] [µM] |
| --- | --- | --- | --- |
| Cc1c(O)c(=O)ccn1CCC(=O)NCCCc1cc(C(C)(C)C)c(O)c(C(C)(C)C)c1 [Example 1, 3-(1,4-Dihydro-3-hydroxy-2-methyl-4-oxo-1-pyridinyl)-N-(3-(3,5-di-tert-butyl-4-hydroxyphenyl)propyl)propanamide] | 0.2 | – | 0.3 |
| Cc1c(C)c2c(c(C)c1O)CCC(C)(CNC(=O)CCn1ccc(=O)c(O)c1C)O2 (stereo not drawn) [Example 5, 3-(1,4-Dihydro-3-hydroxy-2-methyl-4-oxo-1-pyridinyl)-N-(3,4-dihydro-6-hydroxy-2,5,7,8-tetramethyl-2H-benzopyran-2-yl)methylpropanamide] | 0.8 | – | 2.6 |
| Cc1c(C)c2c(c(C)c1O)CC(CC(=O)OCCn1ccc(=O)c(O)c1C)O2 (stereo not drawn) [Example 9, 2-(1,4-Dihydro-3-hydroxy-2-methyl-4-oxo-1-pyridinyl)ethyl 2,3-dihydro-5-hydroxy-4,6,7-trimethylbenzofuran-2-acetate] | 0.4 | – | 1.6 |
| Cc1c(C)c2c(c(C)c1O)CC(CCOC(=O)CCn1ccc(=O)c(O)c1C)O2 (stereo not drawn) [Example 10, 2-(2,3-Dihydro-5-hydroxy-4,6,7-trimethylbenzofuran-2-yl)ethyl 3-(1,4-dihydro-3-hydroxy-2-methyl-4-oxo-1-pyridinyl)propanoate] | 0.2 | 0.8 | ~5.3 |
| N-(2-(1,4-Dihydro-3-hydroxy-2-methyl-4-oxo-1-pyridinyl)ethyl)-3,4-dihydro-6-hydroxy-2,5,7,8-tetramethyl-2H-benzopyran-2-carboxamide [Example 4] | 1 | – | 1.8 |

The remaining compounds from weak to strong by IC50 [1], led by results:

| IC50 [1] [µM] | EC50 [3] [µM] | Compound | EC50 [2] [µM] |
| --- | --- | --- | --- |
| 1.5 | – | 2-(1,4-Dihydro-3-hydroxy-2-methyl-4-oxo-1-pyridinyl)ethyl 3,4-dihydro-6-hydroxy-2,5,7,8-tetramethyl-2H-benzopyran-2-carboxylate [Example 3] | 1.8 |
| 0.5 | – | Cc1c(C)c2c(c(C)c1O)CC(CC(=O)NCCn1ccc(=O)c(O)c1C)O2 (stereo not drawn) [Example 8, N-(2-(1,4-Dihydro-3-hydroxy-2-methyl-4-oxo-1-pyridinyl)ethyl)-2,3-dihydro-5-hydroxy-4,6,7-trimethylbenzofuran-2-acetamide] | 3.8 |
| 0.2 | – | Cc1c(O)c(=O)ccn1CCNCc1cc(C(C)(C)C)c(O)c(C(C)(C)C)c1 [Example 2, 1-[2-(3,5-Di-tert-butyl-4-hydroxybenzylamino)ethyl]-3-hydroxy-2-methyl-4(1H)-pyridinone dihydrochloride] | 3.3 |
| 0.2 | – | Cc1c(C)c2c(c(C)c1O)CCC(C)(COCCn1ccc(=O)c(O)c1C)O2 (stereo not drawn) [Example 6] | ~3 |
| 0.1 | – | Cc1c(C)c2c(c(C)c1O)CCC(C)(CNCCCCn1ccc(=O)c(O)c1C)O2 (stereo not drawn) [Example 7, 1-[4-(3,4-Dihydro-6-hydroxy-2,5,7,8-tetramethyl-2H-benzopyran-2-yl)methylamino)butyl]-3-hydroxy-2-methyl-4(1H)-pyridinone dihydrochloride] | 0.6 |
